{
  "source": "paper PMC6407913",
  "about": "“DREADD Agonist 21 Is an Effective Agonist for Muscarinic-Based DREADDs in Vitro and in Vivo” (ACS Pharmacology & Translational Science, 2018)",
  "format_in_all_cases": "cell-based",
  "key": {"[1]": {"target": "T1, 318 nonolfactory human GPCRs (Homo sapiens, UniProt O14843)", "T1 construct": "expressed in transfected cells; host or cells: HTLA cells, transient", "conditions": "FFA3; C21 5 µM"}, "[2]": {"target": "T2, 318 nonolfactory human GPCRs (Homo sapiens, UniProt O15218)", "T2 construct": "expressed in transfected cells; host or cells: HTLA cells, transient", "conditions": "GPR182; C21 5 µM"}, "[3]": {"target": "T3, 318 nonolfactory human GPCRs (Homo sapiens, UniProt O15354)", "T3 construct": "expressed in transfected cells; host or cells: HTLA cells, transient", "conditions": "GPR37; C21 5 µM"}, "[4]": {"target": "318 nonolfactory human GPCRs (Homo sapiens, UniProt P21917)", "sequence (P21917 whole entry)": "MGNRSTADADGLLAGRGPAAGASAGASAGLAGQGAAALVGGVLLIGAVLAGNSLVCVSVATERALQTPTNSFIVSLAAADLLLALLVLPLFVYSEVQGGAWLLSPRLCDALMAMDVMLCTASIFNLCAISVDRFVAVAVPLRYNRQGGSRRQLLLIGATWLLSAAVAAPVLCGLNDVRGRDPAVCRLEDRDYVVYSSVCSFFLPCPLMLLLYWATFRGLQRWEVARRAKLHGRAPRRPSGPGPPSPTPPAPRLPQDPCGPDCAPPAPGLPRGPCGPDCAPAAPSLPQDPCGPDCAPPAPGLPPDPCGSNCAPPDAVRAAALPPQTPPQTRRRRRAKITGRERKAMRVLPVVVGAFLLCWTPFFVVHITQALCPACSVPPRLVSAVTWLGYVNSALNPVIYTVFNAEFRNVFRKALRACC", "conditions": "DRD4; C21 5 µM"}, "[5]": {"target": "318 nonolfactory human GPCRs (Homo sapiens, UniProt P21918)", "conditions": "DRD5; C21 5 µM"}, "[6]": {"target": "T4, 318 nonolfactory human GPCRs (Homo sapiens, UniProt P25089)", "T4 construct": "expressed in transfected cells; host or cells: HTLA cells, transient", "conditions": "FPR3; C21 5 µM"}, "[7]": {"target": "318 nonolfactory human GPCRs (Homo sapiens, UniProt P28335, I156V/I160V)", "conditions": "HTR2C VNV; C21 5 µM"}, "[8]": {"target": "318 nonolfactory human GPCRs (Homo sapiens, UniProt P28566)", "sequence (P28566 whole entry)": "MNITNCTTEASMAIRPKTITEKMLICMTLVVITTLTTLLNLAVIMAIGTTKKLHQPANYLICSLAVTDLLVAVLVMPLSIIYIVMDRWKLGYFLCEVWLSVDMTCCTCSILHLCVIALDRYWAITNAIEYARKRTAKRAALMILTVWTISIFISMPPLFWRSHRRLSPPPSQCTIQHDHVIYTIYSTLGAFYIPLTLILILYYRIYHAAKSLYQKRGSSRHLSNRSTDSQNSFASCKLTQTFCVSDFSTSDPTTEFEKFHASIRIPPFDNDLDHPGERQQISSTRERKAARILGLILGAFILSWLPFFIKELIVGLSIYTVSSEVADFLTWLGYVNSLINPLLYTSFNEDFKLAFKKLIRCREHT", "conditions": "HTR1E; C21 5 µM"}, "[9]": {"target": "T5, 318 nonolfactory human GPCRs (Homo sapiens, UniProt P29371)", "T5 construct": "expressed in transfected cells; host or cells: HTLA cells, transient", "T5 sequence (P29371 whole entry)": "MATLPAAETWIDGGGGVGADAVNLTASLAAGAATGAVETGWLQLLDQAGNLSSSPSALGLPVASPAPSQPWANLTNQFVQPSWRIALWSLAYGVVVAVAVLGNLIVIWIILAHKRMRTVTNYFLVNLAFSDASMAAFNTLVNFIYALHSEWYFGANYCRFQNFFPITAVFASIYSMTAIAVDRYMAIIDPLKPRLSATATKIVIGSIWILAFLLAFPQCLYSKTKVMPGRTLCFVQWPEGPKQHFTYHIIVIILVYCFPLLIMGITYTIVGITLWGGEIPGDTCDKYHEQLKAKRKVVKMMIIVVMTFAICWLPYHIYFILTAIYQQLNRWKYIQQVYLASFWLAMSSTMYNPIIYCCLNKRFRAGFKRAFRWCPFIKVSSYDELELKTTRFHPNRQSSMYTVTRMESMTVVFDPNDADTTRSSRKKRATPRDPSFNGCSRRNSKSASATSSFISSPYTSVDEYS", "conditions": "TACR3; C21 5 µM"}, "[10]": {"target": "318 nonolfactory human GPCRs (Homo sapiens, UniProt P31391)", "conditions": "SSTR4; C21 5 µM"}, "[11]": {"target": "318 nonolfactory human GPCRs (Homo sapiens, UniProt P32239)", "conditions": "CCKBR; C21 5 µM"}, "[12]": {"target": "T6, 318 nonolfactory human GPCRs (Homo sapiens, UniProt P34998)", "T6 construct": "expressed in transfected cells; host or cells: HTLA cells, transient", "T6 sequence (P34998 24-415)": "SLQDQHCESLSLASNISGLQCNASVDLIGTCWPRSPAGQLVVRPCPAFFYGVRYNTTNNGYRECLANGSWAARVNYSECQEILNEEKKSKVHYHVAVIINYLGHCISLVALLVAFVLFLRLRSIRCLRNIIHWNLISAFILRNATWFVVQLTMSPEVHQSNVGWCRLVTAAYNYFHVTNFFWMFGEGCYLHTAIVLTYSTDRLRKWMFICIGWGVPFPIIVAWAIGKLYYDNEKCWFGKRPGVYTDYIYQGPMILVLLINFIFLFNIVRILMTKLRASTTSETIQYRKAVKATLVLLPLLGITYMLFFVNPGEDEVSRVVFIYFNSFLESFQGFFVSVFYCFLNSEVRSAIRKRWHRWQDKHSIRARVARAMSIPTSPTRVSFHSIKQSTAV", "conditions": "CRHR1; C21 5 µM"}, "[13]": {"target": "T7, 318 nonolfactory human GPCRs (Homo sapiens, UniProt P35368)", "T7 construct": "expressed in transfected cells; host or cells: HTLA cells, transient", "conditions": "ADRA1B; C21 5 µM"}, "[14]": {"target": "T8, 318 nonolfactory human GPCRs (Homo sapiens, UniProt P41231)", "T8 construct": "expressed in transfected cells; host or cells: HTLA cells, transient", "conditions": "P2RY2; C21 5 µM"}, "[15]": {"target": "T9, 318 nonolfactory human GPCRs (Homo sapiens, UniProt P46091)", "T9 construct": "expressed in transfected cells; host or cells: HTLA cells, transient", "conditions": "GPR1; C21 5 µM"}, "[16]": {"target": "T10, 318 nonolfactory human GPCRs (Homo sapiens, UniProt P46095)", "T10 construct": "expressed in transfected cells; host or cells: HTLA cells, transient", "conditions": "GPR6; C21 5 µM"}, "[17]": {"target": "318 nonolfactory human GPCRs (Homo sapiens, UniProt P47211)", "sequence (P47211 whole entry)": "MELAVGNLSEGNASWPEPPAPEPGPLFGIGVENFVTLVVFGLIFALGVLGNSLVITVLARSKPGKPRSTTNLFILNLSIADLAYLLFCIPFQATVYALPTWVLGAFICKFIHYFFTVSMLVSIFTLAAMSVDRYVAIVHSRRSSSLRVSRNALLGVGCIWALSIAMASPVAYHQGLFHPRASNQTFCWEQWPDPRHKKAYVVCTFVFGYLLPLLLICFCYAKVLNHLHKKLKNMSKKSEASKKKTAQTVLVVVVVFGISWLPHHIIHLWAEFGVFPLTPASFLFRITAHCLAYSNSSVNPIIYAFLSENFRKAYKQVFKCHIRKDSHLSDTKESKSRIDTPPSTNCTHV", "conditions": "GAL1; C21 5 µM"}, "[18]": {"target": "T11, 318 nonolfactory human GPCRs (Homo sapiens, UniProt P47898)", "T11 construct": "expressed in transfected cells; host or cells: HTLA cells, transient", "conditions": "HTR5; C21 5 µM"}, "[19]": {"target": "T12, 318 nonolfactory human GPCRs (Homo sapiens, UniProt P49238)", "T12 construct": "expressed in transfected cells; host or cells: HTLA cells, transient", "conditions": "CX3CR1; C21 5 µM"}, "[20]": {"target": "T13, 318 nonolfactory human GPCRs (Homo sapiens, UniProt P60893)", "T13 construct": "expressed in transfected cells; host or cells: HTLA cells, transient", "conditions": "GPR85; C21 5 µM"}, "[21]": {"target": "T14, 318 nonolfactory human GPCRs (Homo sapiens, UniProt Q01726)", "T14 construct": "expressed in transfected cells; host or cells: HTLA cells, transient", "conditions": "MC1R; C21 5 µM"}, "[22]": {"target": "318 nonolfactory human GPCRs (Homo sapiens, UniProt Q13258)", "conditions": "PTGDR; C21 5 µM"}, "[23]": {"target": "T15, 318 nonolfactory human GPCRs (Homo sapiens, UniProt Q13585)", "T15 construct": "expressed in transfected cells; host or cells: HTLA cells, transient", "T15 sequence (Q13585 whole entry)": "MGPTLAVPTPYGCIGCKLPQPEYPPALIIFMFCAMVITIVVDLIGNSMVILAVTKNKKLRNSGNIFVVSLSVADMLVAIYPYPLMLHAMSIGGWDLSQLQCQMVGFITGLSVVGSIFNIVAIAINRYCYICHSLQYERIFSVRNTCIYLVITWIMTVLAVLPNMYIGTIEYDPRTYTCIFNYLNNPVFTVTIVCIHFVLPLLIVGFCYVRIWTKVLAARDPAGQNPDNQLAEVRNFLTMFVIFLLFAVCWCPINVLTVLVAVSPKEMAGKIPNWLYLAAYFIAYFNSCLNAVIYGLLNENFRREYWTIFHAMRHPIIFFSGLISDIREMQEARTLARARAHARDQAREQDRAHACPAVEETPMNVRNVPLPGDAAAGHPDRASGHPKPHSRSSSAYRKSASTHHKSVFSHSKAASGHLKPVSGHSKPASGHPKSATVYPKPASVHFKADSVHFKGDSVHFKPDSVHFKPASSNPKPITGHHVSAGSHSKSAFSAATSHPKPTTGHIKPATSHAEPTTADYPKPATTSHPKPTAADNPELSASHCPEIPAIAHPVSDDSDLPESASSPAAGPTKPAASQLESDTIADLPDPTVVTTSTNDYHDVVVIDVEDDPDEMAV", "conditions": "GPR50; C21 5 µM"}, "[24]": {"target": "T16, 318 nonolfactory human GPCRs (Homo sapiens, UniProt Q14330)", "T16 construct": "expressed in transfected cells; host or cells: HTLA cells, transient", "conditions": "GPR18; C21 5 µM"}, "[25]": {"target": "T17, 318 nonolfactory human GPCRs (Homo sapiens, UniProt Q86SP6)", "T17 construct": "expressed in transfected cells; host or cells: HTLA cells, transient", "T17 sequence (Q86SP6 whole entry)": "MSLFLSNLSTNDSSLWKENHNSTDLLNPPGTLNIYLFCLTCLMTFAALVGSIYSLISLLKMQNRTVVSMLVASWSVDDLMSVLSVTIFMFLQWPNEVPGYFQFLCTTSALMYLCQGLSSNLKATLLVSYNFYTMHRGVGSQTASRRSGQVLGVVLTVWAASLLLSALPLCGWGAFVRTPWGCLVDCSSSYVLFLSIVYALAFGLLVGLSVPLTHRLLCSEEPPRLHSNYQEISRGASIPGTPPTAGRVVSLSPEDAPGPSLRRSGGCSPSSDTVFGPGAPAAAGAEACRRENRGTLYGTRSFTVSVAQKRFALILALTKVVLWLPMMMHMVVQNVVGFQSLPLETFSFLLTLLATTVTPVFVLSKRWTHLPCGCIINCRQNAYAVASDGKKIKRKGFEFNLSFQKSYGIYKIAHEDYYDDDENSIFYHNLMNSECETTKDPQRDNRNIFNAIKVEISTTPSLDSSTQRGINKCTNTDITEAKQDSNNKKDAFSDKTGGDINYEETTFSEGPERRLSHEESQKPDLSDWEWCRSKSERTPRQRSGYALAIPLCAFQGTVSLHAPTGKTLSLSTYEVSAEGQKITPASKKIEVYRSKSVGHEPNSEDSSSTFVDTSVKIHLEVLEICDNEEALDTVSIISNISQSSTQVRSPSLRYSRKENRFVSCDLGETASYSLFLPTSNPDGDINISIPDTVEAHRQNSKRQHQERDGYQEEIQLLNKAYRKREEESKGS", "conditions": "GPR149; C21 5 µM"}, "[26]": {"target": "T18, 318 nonolfactory human GPCRs (Homo sapiens, UniProt Q86Y34)", "T18 construct": "expressed in transfected cells; host or cells: HTLA cells, transient", "conditions": "GPR97; C21 5 µM"}, "[27]": {"target": "T19, 318 nonolfactory human GPCRs (Homo sapiens, UniProt Q8TDS7)", "T19 construct": "expressed in transfected cells; host or cells: HTLA cells, transient", "conditions": "MRGPRD; C21 5 µM"}, "[28]": {"target": "T20, 318 nonolfactory human GPCRs (Homo sapiens, UniProt Q8TDT2)", "T20 construct": "expressed in transfected cells; host or cells: HTLA cells, transient", "T20 sequence (Q8TDT2 whole entry)": "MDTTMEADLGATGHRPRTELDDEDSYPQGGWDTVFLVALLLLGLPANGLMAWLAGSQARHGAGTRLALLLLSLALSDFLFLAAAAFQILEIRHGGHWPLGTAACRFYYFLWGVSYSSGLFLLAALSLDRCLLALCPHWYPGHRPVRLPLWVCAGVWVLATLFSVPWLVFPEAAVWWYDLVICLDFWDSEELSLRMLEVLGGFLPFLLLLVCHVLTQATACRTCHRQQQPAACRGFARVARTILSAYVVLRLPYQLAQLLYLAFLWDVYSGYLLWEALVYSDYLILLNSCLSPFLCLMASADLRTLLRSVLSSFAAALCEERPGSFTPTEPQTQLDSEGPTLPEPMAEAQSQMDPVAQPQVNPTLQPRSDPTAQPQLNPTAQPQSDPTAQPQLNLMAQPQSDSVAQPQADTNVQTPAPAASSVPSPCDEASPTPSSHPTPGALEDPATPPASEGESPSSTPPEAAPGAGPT", "conditions": "GPR152; C21 5 µM"}, "[29]": {"target": "T21, 318 nonolfactory human GPCRs (Homo sapiens, UniProt Q92847)", "T21 construct": "expressed in transfected cells; host or cells: HTLA cells, transient", "conditions": "GHSR; C21 5 µM"}, "[30]": {"target": "T22, 318 nonolfactory human GPCRs (Homo sapiens, UniProt Q9BY21)", "T22 construct": "expressed in transfected cells; host or cells: HTLA cells, transient", "T22 sequence (Q9BY21 whole entry)": "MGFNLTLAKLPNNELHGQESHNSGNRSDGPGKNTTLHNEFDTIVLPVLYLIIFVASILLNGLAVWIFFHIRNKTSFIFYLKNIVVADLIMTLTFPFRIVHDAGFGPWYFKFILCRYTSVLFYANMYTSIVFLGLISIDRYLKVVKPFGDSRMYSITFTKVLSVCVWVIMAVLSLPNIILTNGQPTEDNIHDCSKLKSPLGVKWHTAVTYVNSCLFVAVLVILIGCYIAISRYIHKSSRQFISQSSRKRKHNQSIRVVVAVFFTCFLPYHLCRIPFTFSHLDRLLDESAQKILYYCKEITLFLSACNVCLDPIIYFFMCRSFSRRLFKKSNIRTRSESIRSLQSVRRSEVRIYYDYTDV", "conditions": "GPR87; C21 5 µM"}, "[31]": {"target": "T23, 318 nonolfactory human GPCRs (Homo sapiens, UniProt Q9H244)", "T23 construct": "expressed in transfected cells; host or cells: HTLA cells, transient", "T23 sequence (Q9H244 whole entry)": "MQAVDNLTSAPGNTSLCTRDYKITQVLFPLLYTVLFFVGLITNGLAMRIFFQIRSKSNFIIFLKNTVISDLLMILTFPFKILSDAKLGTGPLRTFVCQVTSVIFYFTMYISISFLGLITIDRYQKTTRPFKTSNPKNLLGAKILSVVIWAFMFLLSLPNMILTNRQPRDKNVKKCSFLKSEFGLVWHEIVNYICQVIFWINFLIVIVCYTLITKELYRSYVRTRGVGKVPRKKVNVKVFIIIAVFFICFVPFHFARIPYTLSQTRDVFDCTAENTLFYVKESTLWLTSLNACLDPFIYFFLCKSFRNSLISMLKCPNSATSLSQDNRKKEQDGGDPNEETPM", "conditions": "P2RY12; C21 5 µM"}, "[32]": {"target": "T24, 318 nonolfactory human GPCRs (Homo sapiens, UniProt Q9HBW9)", "T24 construct": "expressed in transfected cells; host or cells: HTLA cells, transient", "conditions": "ELTD1; C21 5 µM"}, "[33]": {"target": "T25, 318 nonolfactory human GPCRs (Homo sapiens, UniProt Q9HC97)", "T25 construct": "expressed in transfected cells; host or cells: HTLA cells, transient", "T25 sequence (Q9HC97 whole entry)": "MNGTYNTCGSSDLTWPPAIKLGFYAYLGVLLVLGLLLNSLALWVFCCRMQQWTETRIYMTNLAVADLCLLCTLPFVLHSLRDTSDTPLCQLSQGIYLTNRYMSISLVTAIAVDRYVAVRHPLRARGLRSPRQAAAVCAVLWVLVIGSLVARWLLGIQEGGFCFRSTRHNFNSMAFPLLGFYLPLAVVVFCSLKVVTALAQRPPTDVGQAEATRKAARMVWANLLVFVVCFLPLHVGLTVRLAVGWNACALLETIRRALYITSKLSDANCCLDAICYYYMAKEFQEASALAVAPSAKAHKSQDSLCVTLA", "conditions": "GPR35; C21 5 µM"}, "[34]": {"target": "T26, 318 nonolfactory human GPCRs (Homo sapiens, UniProt Q9NS75)", "T26 construct": "expressed in transfected cells; host or cells: HTLA cells, transient", "conditions": "CYSLTR2; C21 5 µM"}},
  "note": "“And” between values parts separate entries of the source, which are not always exact repeats. Equal values may be shown once.",
  "data": [
    {"smiles": "c1ccc2c(c1)N=C(N1CCNCC1)c1ccccc1N2", "note": "[C21, 11-(1-piperazinyl)-5H-dibenzo[b,e][1,4]diazepine]", "values": [
      {"measurement": "FOLD OVER BASAL", "setting": "[1]", "value": "0.6 fold and 0.7 fold"},
      {"measurement": "FOLD OVER BASAL", "setting": "[2]", "value": "0.9 fold and 1 fold and 1.1 fold and 0.7 fold"},
      {"measurement": "FOLD OVER BASAL", "setting": "[3]", "value": "1.1 fold and 0.9 fold and 1.2 fold and 0.7 fold"},
      {"measurement": "FOLD OVER BASAL", "setting": "[4]", "value": "3.4 fold and 2.2 fold and 2 fold and 1.9 fold"},
      {"measurement": "FOLD OVER BASAL", "setting": "[5]", "value": "0.8 fold and 0.7 fold"},
      {"measurement": "FOLD OVER BASAL", "setting": "[6]", "value": "1.2 fold and 0.9 fold and 1.1 fold and 1 fold"},
      {"measurement": "FOLD OVER BASAL", "setting": "[7]", "value": "0.4 fold and 0.3 fold"},
      {"measurement": "FOLD OVER BASAL", "setting": "[8]", "value": "1 fold and 0.9 fold and 1.1 fold"},
      {"measurement": "FOLD OVER BASAL", "setting": "[9]", "value": "1.2 fold and 0.8 fold and 0.6 fold and 0.7 fold"},
      {"measurement": "FOLD OVER BASAL", "setting": "[10]", "value": "1.7 fold and 1.4 fold and 1.2 fold and 1.1 fold"},
      {"measurement": "FOLD OVER BASAL", "setting": "[11]", "value": "1.8 fold and 2.1 fold and 1.9 fold and 1.2 fold"},
      {"measurement": "FOLD OVER BASAL", "setting": "[12]", "value": "1.8 fold and 0.9 fold and 1.1 fold and 1.2 fold"},
      {"measurement": "FOLD OVER BASAL", "setting": "[13]", "value": "1 fold and 0.8 fold and 1.1 fold and 0.7 fold"},
      {"measurement": "FOLD OVER BASAL", "setting": "[14]", "value": "1.4 fold and 1.2 fold and 1.3 fold and 1 fold"},
      {"measurement": "FOLD OVER BASAL", "setting": "[15]", "value": "1.1 fold and 1.4 fold and 0.8 fold and 1 fold"},
      {"measurement": "FOLD OVER BASAL", "setting": "[16]", "value": "0.9 fold and 1.3 fold and 1 fold and 1.2 fold"},
      {"measurement": "FOLD OVER BASAL", "setting": "[17]", "value": "0.7 fold and 0.5 fold and 0.9 fold and 0.8 fold"},
      {"measurement": "FOLD OVER BASAL", "setting": "[18]", "value": "0.9 fold and 1 fold and 0.8 fold"},
      {"measurement": "FOLD OVER BASAL", "setting": "[19]", "value": "0.6 fold and 1.1 fold and 0.8 fold"},
      {"measurement": "FOLD OVER BASAL", "setting": "[20]", "value": "0.8 fold and 1.2 fold and 1 fold"},
      {"measurement": "FOLD OVER BASAL", "setting": "[21]", "value": "0.9 fold and 1.1 fold and 1 fold and 0.7 fold"},
      {"measurement": "FOLD OVER BASAL", "setting": "[22]", "value": "1.3 fold and 1.5 fold and 1 fold and 1.4 fold"},
      {"measurement": "FOLD OVER BASAL", "setting": "[23]", "value": "0.6 fold and 0.7 fold and 0.5 fold and 0.9 fold"},
      {"measurement": "FOLD OVER BASAL", "setting": "[24]", "value": "0.8 fold and 1.1 fold and 0.7 fold"},
      {"measurement": "FOLD OVER BASAL", "setting": "[25]", "value": "0.8 fold and 0.5 fold and 0.7 fold and 0.9 fold"},
      {"measurement": "FOLD OVER BASAL", "setting": "[26]", "value": "0.6 fold and 0.5 fold and 0.7 fold"},
      {"measurement": "FOLD OVER BASAL", "setting": "[27]", "value": "0.7 fold and 0.9 fold and 0.6 fold"},
      {"measurement": "FOLD OVER BASAL", "setting": "[28]", "value": "0.5 fold and 0.7 fold and 0.6 fold"},
      {"measurement": "FOLD OVER BASAL", "setting": "[29]", "value": "0.9 fold and 1 fold"},
      {"measurement": "FOLD OVER BASAL", "setting": "[30]", "value": "0.9 fold and 0.8 fold and 1 fold"},
      {"measurement": "FOLD OVER BASAL", "setting": "[31]", "value": "0.6 fold and 1 fold and 0.5 fold and 0.8 fold"},
      {"measurement": "FOLD OVER BASAL", "setting": "[32]", "value": "0.6 fold and 0.8 fold and 1 fold and 0.7 fold"},
      {"measurement": "FOLD OVER BASAL", "setting": "[33]", "value": "1 fold and 1.2 fold and 0.9 fold and 1.3 fold"},
      {"measurement": "FOLD OVER BASAL", "setting": "[34]", "value": "0.7 fold and 0.9 fold and 1.1 fold"}
    ]}
  ]
}
